Counter-ions that a name gives are not always drawn.

The target of experiment [1] is human α2β3γ2 GABAARs (benzodiazepine site) (Homo sapiens (Human), UniProt P18507+P47869). Description: In vitro radioligand binding assay ([3H]Ro15-1788 displacement), α2-GABAAR Ki. Put shortly:
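Ki derived via Cheng-Prusoff from IC50 for displacement of 4 nM [3H]Ro15-1788 (Kd from saturation binding), with 1-3 μM TP003 defining nonspecific binding. Incubation lasted 1 h at 4° C on membranes of induced L(tk−) cells stably transfected with the human subunits; detection by filtration and scintillation counting.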

Experiment [2] concerns human α2β3γ2 GABAARs. Put plainly: In vitro electrophysiological recording assay (automated patch-clamp), α2-GABAAR relative efficacy. The conditions noted are these: % efficacy normalised to diazepam; GABA EC10-20; concentration generally >= 100 times Ki. The experiment is classed as cell-based. Put shortly: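 Relative efficacy is % enhancement of the leak-subtracted GABA EC10-20 peak current, divided by the separately measured diazepam value; compound generally tested at ≥100× Ki after ≥1 min pre-application. Recordings at room temperature, human receptors stably expressed in L(tk^−) (QPatch, −65 mV) or HEK293 (SyncroPatch, −80 mV) cells.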
In general terms: The patch-clamp technique gives a direct electrical read-out from membranes.

Chain of human α2β3γ2 GABAARs (benzodiazepine site) (P47869 29-451): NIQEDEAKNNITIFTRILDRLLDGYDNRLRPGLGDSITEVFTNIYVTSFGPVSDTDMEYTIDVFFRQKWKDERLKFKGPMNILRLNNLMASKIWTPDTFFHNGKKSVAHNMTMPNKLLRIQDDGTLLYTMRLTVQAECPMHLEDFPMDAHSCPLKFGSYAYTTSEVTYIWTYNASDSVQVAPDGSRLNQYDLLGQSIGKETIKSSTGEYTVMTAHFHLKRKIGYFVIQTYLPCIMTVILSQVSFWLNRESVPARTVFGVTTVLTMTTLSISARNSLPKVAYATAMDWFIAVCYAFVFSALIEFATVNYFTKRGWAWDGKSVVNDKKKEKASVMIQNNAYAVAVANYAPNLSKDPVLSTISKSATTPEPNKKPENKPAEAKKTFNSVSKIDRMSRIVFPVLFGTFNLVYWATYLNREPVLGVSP
Chain of human α2β3γ2 GABAARs (benzodiazepine site) (P28472 26-473 partner): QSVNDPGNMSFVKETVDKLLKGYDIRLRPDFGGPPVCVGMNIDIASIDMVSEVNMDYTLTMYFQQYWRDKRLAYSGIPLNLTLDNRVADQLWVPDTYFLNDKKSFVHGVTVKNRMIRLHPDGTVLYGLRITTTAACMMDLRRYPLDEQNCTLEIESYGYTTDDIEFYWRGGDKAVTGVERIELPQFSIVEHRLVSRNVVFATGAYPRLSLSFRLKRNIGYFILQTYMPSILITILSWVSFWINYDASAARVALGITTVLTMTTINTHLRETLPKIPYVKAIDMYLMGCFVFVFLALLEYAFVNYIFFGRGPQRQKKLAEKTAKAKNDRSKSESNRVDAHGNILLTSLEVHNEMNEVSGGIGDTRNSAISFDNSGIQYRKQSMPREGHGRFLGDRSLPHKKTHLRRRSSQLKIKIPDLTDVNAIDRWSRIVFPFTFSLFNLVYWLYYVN
Chain of human α2β3γ2 GABAARs (benzodiazepine site) (P18507 40-475): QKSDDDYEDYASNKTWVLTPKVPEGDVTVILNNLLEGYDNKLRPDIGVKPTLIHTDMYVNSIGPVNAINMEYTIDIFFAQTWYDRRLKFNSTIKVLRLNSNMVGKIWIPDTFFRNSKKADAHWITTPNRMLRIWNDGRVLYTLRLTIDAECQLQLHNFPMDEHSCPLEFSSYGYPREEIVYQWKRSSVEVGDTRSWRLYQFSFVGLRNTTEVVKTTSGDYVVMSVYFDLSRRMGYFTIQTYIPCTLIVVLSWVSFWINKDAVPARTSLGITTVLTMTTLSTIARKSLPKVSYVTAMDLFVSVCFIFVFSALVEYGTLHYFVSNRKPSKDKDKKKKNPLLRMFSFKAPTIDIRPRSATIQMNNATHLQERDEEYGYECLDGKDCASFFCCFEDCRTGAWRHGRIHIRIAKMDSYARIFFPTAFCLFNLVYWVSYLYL

As a reminder, the Ki is a measure of affinity in units of concentration, obtained from inhibition or displacement. On to `CCCNC(=O)c1c(N)c2cccc(-c3cc(OCc4ccoc4)ccc3F)c2[nH]c1=O` [Example 116, 4-Amino-8-(2-fluoro-5-(furan-3-ylmethoxy)phenyl)-2-oxo-N-propyl-1,2-dihydroquinoline-3-carboxamide], for which, in experiment [1], the Ki was found to be 1.17 nM. Further, in experiment [2], the “α2-GABAAR Relative Efficacy (vs. Diazepam)” value (shortened to “α2-GABAAR Relative Efficacy”) amounted to 0.42.
For `CCCNC(=O)c1c(N)c2cccc(-c3cnccc3C)c2[nH]c1=O` [Example 15, 4-Amino-8-(4-methylpyridin-3-yl)-2-oxo-N-propyl-1,2-dihydroquinoline-3-carboxamide] the same measures were 4.09 nM and 0.17.
The corresponding values for `CCCNC(=O)c1c(N)c2cccc(-c3cc(CN4CC5(CCN(C)C5)C4)ccc3F)c2[nH]c1=O` [Example 139, 4-Amino-8-(2-fluoro-5-((6-methyl-2,6-diazaspiro[3.4]octan-2-yl)methyl)phenyl)-2-oxo-N-propyl-1,2-dihydroquinoline-3-carboxamide] are 1.08 nM and 0.18.
For `CCCNC(=O)c1c(N)c2cccc(-c3cc(OCc4cc(C#N)ccn4)ccc3F)c2[nH]c1=O` [Example 101, 4-Amino-8-[5-[(4-cyano-2-pyridyl)methoxy]-2-fluoro-phenyl]-2-oxo-N-propyl-1H-quinoline-3-carboxamide] the same measures were 0.19 nM and 0.31.
Turning to `CCCNC(=O)c1c(N)c2cccc(-c3cc(OCc4nnc(C)o4)ccc3F)c2[nH]c1=O` [Example 131, 4-Amino-8-(2-fluoro-5-((5-methyl-1,3,4-oxadiazol-2-yl)methoxy)phenyl)-2-oxo-N-propyl-1,2-dihydroquinoline-3-carboxamide], in experiment [1], the inhibition constant (Ki) amounted to 0.3 nM. Besides, in experiment [2], the “α2-GABAAR Relative Efficacy” value is reported as 0.40.
For `CCCNC(=O)c1c(N)c2cccc(-c3cc(OCc4ccccn4)ccc3C)c2[nH]c1=O` [Example 86, 4-Amino-8-[2-methyl-5-(2-pyridylmethoxy)phenyl]-2-oxo-N-propyl-1H-quinoline-3-carboxamide] the same measures were 1.71 nM and 0.28.
The corresponding values for `CCCNC(=O)c1c(N)c2cccc(-c3ncncc3OC)c2[nH]c1=O` [Example 37, 4-Amino-8-(5-methoxypyrimidin-4-yl)-2-oxo-N-propyl-1H-quinoline-3-carboxamide] are 7.55 nM and 0.78.
With `CCNC(=O)c1c(N)c2cccc(-c3cnccc3OC)c2[nH]c1=O` [Example 56, 4-Amino-N-ethyl-8-(4-methoxy-3-pyridyl)-2-oxo-1H-quinoline-3-carboxamide], in experiment [1], the Ki is 6.62 nM. Moreover, in experiment [2], the “α2-GABAAR Relative Efficacy” value was determined as 0.34.
For `CCCNC(=O)c1c(N)c2cccc(-c3cc(OCc4cccc(OC)n4)ccc3F)c2[nH]c1=O` [Example 89, 4-Amino-8-[2-fluoro-5-[(6-methoxy-2-pyridyl)methoxy]phenyl]-2-oxo-N-propyl-1H-quinoline-3-carboxamide] the same measures were 1.55 nM and 0.3.
`CCCNC(=O)c1c(N)c2cccc(-c3cnccc3F)c2[nH]c1=O` [Example 16, 4-Amino-8-(4-fluoropyridin-3-yl)-2-oxo-N-propyl-1,2-dihydroquinoline-3-carboxamide]: the Ki in experiment [1] was determined as 24.1 nM. In addition, the “α2-GABAAR Relative Efficacy” value in experiment [2] is 0.34.
The corresponding values for `CCCNC(=O)c1c(N)c2cccc(-c3cncc(OC)n3)c2[nH]c1=O` [Example 47, 4-Amino-8-(6-methoxypyrazin-2-yl)-2-oxo-N-propyl-1,2-dihydroquinoline-3-carboxamide] are 0.23 nM and 0.08.
The corresponding values for `CCCNC(=O)c1c(N)c2cccc(-c3cc(OCc4scnc4C)ccc3F)c2[nH]c1=O` [Example 117, 4-Amino-8-[2-fluoro-5-[(4-methylthiazol-5-yl)methoxy]phenyl]-2-oxo-N-propyl-1H-quinoline-3-carboxamide] are 1.6 nM and 0.23.
For `Cc1nn(C)cc1-c1cccc2c(N)c(C(=O)NCC(C)C)c(=O)n(C)c12` [Example 82, 4-Amino-8-(1,3-dimethylpyrazol-4-yl)-N-isobutyl-1-methyl-2-oxo-quinoline-3-carboxamide] the same measures were 6.66 nM and 0.31.
On to `CCCNC(=O)c1c(N)c2cccc(-c3cc(OCc4ccc(F)cn4)ccc3C)c2[nH]c1=O` [Example 93], for which, in experiment [1], the Ki stood at 1.63 nM. In addition, the “α2-GABAAR Relative Efficacy” value in experiment [2] is 0.34.
The corresponding values for `CCCNC(=O)c1c(N)c2cccc(-c3ncc(F)cc3F)c2[nH]c1=O` [Example 6, 4-Amino-8-(3,5-difluoro-2-pyridyl)-2-oxo-N-propyl-1H-quinoline-3-carboxamide] are 0.87 nM and 0.10.
The corresponding values for `COCCNC(=O)c1c(N)c2cccc(-c3cnccc3OC)c2[nH]c1=O` [Example 63, 4-Amino-N-(2-methoxyethyl)-8-(4-methoxy-3-pyridyl)-2-oxo-1H-quinoline-3-carboxamide] are 24.5 nM and 0.65.
For `CCCNC(=O)c1c(N)c2cccc(-c3cc(CN4CC5(CCOCC5)C4)ccc3F)c2[nH]c1=O` [Example 141, hydrochloride] the same measures were 2.61 nM and 0.36.
With `CCCNC(=O)c1c(N)c2cccc(-c3cc(OCc4ccc(Cl)cn4)ccc3F)c2[nH]c1=O` [Example 97, 4-Amino-8-[5-[(5-chloro-2-pyridyl)methoxy]-2-fluoro-phenyl]-2-oxo-N-propyl-1H-quinoline-3-carboxamide], the Ki in experiment [1] was 0.72 nM. Moreover, the “α2-GABAAR Relative Efficacy” value in experiment [2] is reported as 0.25.
In the case of `CCCNC(=O)c1c(N)c2cccc(-c3c(F)cccc3F)c2[nH]c1=O` [Example 50, 4-Amino-8-(2,6-difluorophenyl)-2-oxo-N-propyl-1H-quinoline-3-carboxamide], the Ki in experiment [1] is 0.21 nM. Moreover, in experiment [2], the “α2-GABAAR Relative Efficacy” value was found to be 0.34.
For `CCCNC(=O)c1c(N)c2cccc(-c3cc(OC)ccc3F)c2[nH]c1=O` [Example 49, 4-Amino-8-(2-fluoro-5-methoxy-phenyl)-2-oxo-N-propyl-1H-quinoline-3-carboxamide] the same measures were 0.43 nM and 0.26.
For `CCCNC(=O)c1c(N)c2cccc(-c3cncc(OC)c3C)c2[nH]c1=O` [Example 24, 4-Amino-8-(5-methoxy-4-methylpyridin-3-yl)-2-oxo-N-propyl-1,2-dihydroquinoline-3-carboxamide] the same measures were 4.11 nM and 0.21.
The corresponding values for `CCCNC(=O)c1c(N)c2cccc(-c3cc(OCc4cccnc4C#N)ccc3F)c2[nH]c1=O` [Example 109, 4-Amino-8-[5-[(2-cyano-3-pyridyl)methoxy]-2-fluoro-phenyl]-2-oxo-N-propyl-1H-quinoline-3-carboxamide] are 0.17 nM and 0.21.
On to `COc1ccncc1-c1cccc2c(N)c(C(=O)NCCC(F)F)c(=O)[nH]c12` [Example 68, 4-Amino-N-(3,3-difluoropropyl)-8-(4-methoxy-3-pyridyl)-2-oxo-1H-quinoline-3-carboxamide], for which, in experiment [1], the Ki turned out to be 4.88 nM. Besides, the “α2-GABAAR Relative Efficacy” value in experiment [2] amounted to 0.54.
For the compound `CCCNC(=O)c1c(N)c2cccc(-c3ccncn3)c2[nH]c1=O` [Example 36, 4-Amino-2-oxo-N-propyl-8-pyrimidin-4-yl-1H-quinoline-3-carboxamide], in experiment [1], the Ki turned out to be 3.69 nM. In experiment [2], the “α2-GABAAR Relative Efficacy” value was found to be 0.05.
The corresponding values for `CCCNC(=O)c1c(N)c2cccc(-c3cncc(OCc4ccc(F)cn4)c3)c2[nH]c1=O` [Example 29, 4-Amino-8-(5-((5-fluoropyridin-2-yl)methoxy)pyridin-3-yl)-2-oxo-N-propyl-1,2-dihydroquinoline-3-carboxamide] are 6.66 nM and 0.22.
For the compound `COc1ccncc1-c1cccc2c(N)c(C(=O)NCC(C)C)c(=O)n(C)c12` [Example 79, 4-Amino-N-isobutyl-8-(4-methoxy-3-pyridyl)-1-methyl-2-oxo-quinoline-3-carboxamide], the Ki in experiment [1] worked out at 2.51 nM. For the same compound, the “α2-GABAAR Relative Efficacy” value in experiment [2] came to 0.81.
As for `CCCNC(=O)c1c(N)c2cccc(-c3nc(N)ncc3F)c2[nH]c1=O` [Example 41, 4-Amino-8-(2-amino-5-fluoropyrimidin-4-yl)-2-oxo-N-propyl-1,2-dihydroquinoline-3-carboxamide], in experiment [1], the Ki was 0.4 nM. Besides, the “α2-GABAAR Relative Efficacy” value in experiment [2] is given as 0.13.
The corresponding values for `CCCNC(=O)c1c(N)c2cccc(-c3cc(CN4CC5(CCN(C)CC5)C4)ccc3F)c2[nH]c1=O` [Example 140, 4-Amino-8-(2-fluoro-5-((7-methyl-2,7-diazaspiro[3.5]nonan-2-yl)methyl)phenyl)-2-oxo-N-propyl-1,2-dihydroquinoline-3-carboxamide] are 1.88 nM and 0.34.
For `CCCNC(=O)c1c(N)c2cccc(-c3cc(OCc4ccn(C)n4)ccc3F)c2[nH]c1=O` [Example 128, 4-Amino-8-[2-fluoro-5-[(1-methylpyrazol-3-yl)methoxy]phenyl]-2-oxo-N-propyl-1H-quinoline-3-carboxamide] the same measures were 1.08 nM and 0.24.
